Assay results from publication PMC8379256, “A xanthene derivative, DS20060511, attenuates glucose intolerance by inducing skeletal muscle-specific GLUT4 translocation in mice” (Communications Biology, 2021).
Where “and” joins values, the source holds several entries; their conditions need not be identical. Identical values can stand only once.

Test system: HFD-fed mice
Assay: Oral GTT in normal-chow and high-fat diet (HFD)-fed mice
Format: in vivo, mouse
Settings: for Blood glucose / Plasma insulin: Glucose tolerance test, HFD, 30 mg/kg, individual animals
Experimental: Fig. 8 Acute and chronic DS20060511 treatment improves glucose intolerance in HFD-fed and db/db mice. a Blood glucose and plasma insulin levels during an oral GTT in normal-chow (NC)- and high-fat diet (HFD)-fed mice (n = 5). Vehicle or DS20060511 (30 mg kg^−1) was given orally 15 min before the oral glucose administration (1.5 g kg^−1). Values shown are means ± SEM. *P < 0.05, **P < 0.01, ***P < 0.001 vs. the HFD vehicle by the t-test. b Effects of 10 μM DS20060511 and 100 nM insulin on 2-DG uptake in muscles isolated from NC-fed (n = 6) and HFD-fed (n = 5) mice. Values shown are means ± SEM. **P < 0.01 by one-way ANOVA followed by Tukey’s test. c, d Changes in the blood glucose levels and AUC on day 1 and day 28 during refeeding (n = 6) in db/db mice treated chronically with DS20060511 (10 mg kg^−1 day^−1). Values shown are means ± SEM. *P < 0.05, **P < 0.01, ***P < 0.001 vs. vehicle by the t-test. e Change of the HbA1c levels in the db/db (n = 6) mice at 4 weeks. Values shown are means ± SEM. *P < 0.05 vs. vehicle by the t-test.
C57BL/6 and db/db mice were purchased from CLEA Japan, Tokyo, Japan. GLUT4- knockout mice were generated at RIKEN BioResource Center, Tsukuba, Japan, according to a previously described method. eNOS-knockout mice were kindly provided by Dr. Masato Tsutsui[41],[42]. The mice were group-housed under controlled illumination (12:12 h light-dark cycle) and temperature (23 ± 2 °C) conditions and given free access to normal chow and water, unless otherwise specified. The HFD-fed obese mice were prepared by feeding C57BL/6 mice a HFD for at least 8 weeks from 6 weeks of age. […] Male mice were used for all the experiments in this study. The animal care and experimental procedures used in the study were approved by The University of Tokyo Animal Care Committee (Approval number: 27-3), and the study was carried out in accordance with the Animal Experimentation Guidelines of Daiichi Sankyo Co., Ltd (Approved number: 20000411).
Mice that had been denied access to food overnight received the indicated oral dose of DS20060511 or vehicle 15 min prior to the glucose load (1.5 g kg^−1, except for eNOS-knockout mice, which received 3.0 g kg^−1). Then, after the oral glucose load, the blood glucose levels were measured using Glutest Every in samples obtained from the tail vein at the indicated timepoints. Plasma insulin concentrations were also measured with an ELISA kit (Morinaga Institute of Biological Science, Yokohama, Japan) in blood samples collected from the tail vein at the indicated timepoints.

## COc1ccc2c(C)c(C(=O)O)ccc2c1C1C2=C(CC(C)(C)CC2=O)OC2=C1C(=O)CC(C)(C)C2 [DS20060511]
0 min
  Blood glucose: 194 mg/dL and 178 mg/dL and 193 mg/dL and 108 mg/dL and 185 mg/dL
  Plasma insulin: 0.79 ng/mL and 1.09 ng/mL and 0.57 ng/mL and 0.32 ng/mL and 0.69 ng/mL
15 min
  Blood glucose: 331 mg/dL and 278 mg/dL and 279 mg/dL and 180 mg/dL and 270 mg/dL
  Plasma insulin: 3.22 ng/mL and 2.72 ng/mL and 2.47 ng/mL and 1.43 ng/mL and 1.91 ng/mL
30 min
  Blood glucose: 200 mg/dL and 213 mg/dL and 232 mg/dL and 161 mg/dL
  Plasma insulin: 1.03 ng/mL and 1.28 ng/mL and 0.97 ng/mL and 0.53 ng/mL and 0.78 ng/mL
60 min
  Blood glucose: 209 mg/dL and 214 mg/dL and 235 mg/dL and 141 mg/dL and 229 mg/dL
90 min
  Blood glucose: 199 mg/dL and 201 mg/dL and 204 mg/dL and 164 mg/dL and 209 mg/dL
120 min
  Blood glucose: 188 mg/dL and 154 mg/dL and 227 mg/dL and 155 mg/dL and 189 mg/dL
-15 min
  Blood glucose: 212 mg/dL and 167 mg/dL and 176 mg/dL and 120 mg/dL and 197 mg/dL
  Plasma insulin: 1.31 ng/mL and 2.09 ng/mL and 1.16 ng/mL and 0.67 ng/mL
HFD-fed mice, 30 mg kg−1 po
  blood glucose levels during oral GTT (in words): significantly decreased the blood glucose levels
  plasma insulin levels during oral GTT (in words): rather decreased
